According to PMC6450887, “Metabolic resistance of the D-peptide RD2 developed for direct elimination of amyloid-β oligomers” (Scientific Reports, 2019):
Non-standard residues stand in square brackets, D forms with d. Residues, ends and D or L forms follow the SMILES beside them.

Columns and labels:
[1] = Stability in simulated gastric fluid (SGF), RP-HPLC; type: in vitro ADME; settings: 37 °C, read-out: unmetabolized peptide remaining (remained stable)
Procedure: The preparation of the media was performed as described before in Elfgen et al.[24]. Preparation of simulated gastric and intestinal fluid (SGF & SIF) was done according to the European Pharmacopoeia 7.0. Plasma samples were obtained from human blood of a volunteer donor. Pooled human liver microsomes were purchased from Sekisui XenoTech (Kansas City, USA; H1000, Lot: 0710494 and 1210270; H1500, Lot: 1210079), from Sigma-Aldrich (St. Louis, USA; M0692, Lot: SLBL1433V; M0567, Lot: SLBR2706V and SLBN7300V) and from Gibco, Thermo Fisher Scientific (Waltham, USA; HMMCPL, Lot: PL050; HMMCPM, Lot: PL039). Pooled Sprague Dawley rat liver microsomes were purchased from Sigma-Aldrich (St. Louis, USA; M9066, Lot: SLBN0707V) and from Gibco, Thermo Fisher Scientific (Waltham, USA; RTMCPL, Lot: RT053). Pooled cynomolgus monkey liver microsomes were purchased from Gibco, Thermo Fisher Scientific (Waltham, USA; MKMCPL, Lot: MK062) and from Sekisui XenoTech (Kansas City, USA; P2000, Lot: 1210334). […]
(§1) For sample analysis from stability tests (see 2.3), mobile phases were acetonitrile (A) and water (B) each supplemented with 0.15% trifluoroacetic acid (TFA) (v/v). The samples were measured isocratically at 10% solvent A for 30 min. […] A chromatographic metabolite profile of L-RD2 in SIF was recorded with the same mobile phases but using a gradient from 0 to 30% solvent A in 30 min.

[2] = Stability in human liver microsomes, RP-HPLC / UHPLC-ESI-QTOF-MS; type: in vitro ADME
Procedure: (§2) The preparation of the media was performed as described before in Elfgen et al.[24]. Preparation of simulated gastric and intestinal fluid (SGF & SIF) was done according to the European Pharmacopoeia 7.0. Plasma samples were obtained from human blood of a volunteer donor. Pooled human liver microsomes were purchased from Sekisui XenoTech (Kansas City, USA; H1000, Lot: 0710494 and 1210270; H1500, Lot: 1210079), from Sigma-Aldrich (St. Louis, USA; M0692, Lot: SLBL1433V; M0567, Lot: SLBR2706V and SLBN7300V) and from Gibco, Thermo Fisher Scientific (Waltham, USA; HMMCPL, Lot: PL050; HMMCPM, Lot: PL039). Pooled Sprague Dawley rat liver microsomes were purchased from Sigma-Aldrich (St. Louis, USA; M9066, Lot: SLBN0707V) and from Gibco, Thermo Fisher Scientific (Waltham, USA; RTMCPL, Lot: RT053). Pooled cynomolgus monkey liver microsomes were purchased from Gibco, Thermo Fisher Scientific (Waltham, USA; MKMCPL, Lot: MK062) and from Sekisui XenoTech (Kansas City, USA; P2000, Lot: 1210334). The liver microsomes were diluted in an NADPH regenerating system (NRS).
(§3) For the stability tests, 150 µM RD2 or L-RD2 was incubated in SGF, SIF, human plasma and human liver microsomes in triplicate at 37 °C with slight shaking for different time periods. To prevent microbial contaminations in long-term plasma incubations, 0.1% sodium azide was added to the solutions. Microsomal long-term activity was examined by incubating microsomes without peptide for up to 24 h and adding L-RD2 after 8 and 24 h. The ability to degrade L-RD2 served as indicator for their activity. For the comparison of RD2 metabolite profiles across species, 150 µM RD2 was incubated in human, rat and cynomolgus liver microsomes at 37 °C for 2 and 24 h. The peptides were extracted by precipitating the proteins with trichloroacetic acid (TCA) and subsequent centrifugation, as described previously in Elfgen et al.[24]. Peptides immediately extracted from the media and precipitated media without peptides served as controls.
For sample analysis from stability tests (see 2.3), mobile phases were acetonitrile (A) and water (B) each supplemented with 0.15% trifluoroacetic acid (TFA) (v/v). The samples were measured isocratically at 10% solvent A for 30 min. This run conditions allowed us to detect smallest chemical changes including the differentiation between the original compound and a deamidated version (Fig. S1). RD2 and L-RD2 can potentially be deamidated at two sites, the C-terminus and the asparagine at position seven. Peak areas of the unmetabolized peptides after different incubation times were normalized to the peptides’ peak areas after direct extraction from the media. […] A chromatographic metabolite profile of L-RD2 in SIF was recorded with the same mobile phases but using a gradient from 0 to 30% solvent A in 30 min. […]

[3] = Comparison of RD2 metabolite profiles across species: cynomolgus liver microsomes; type: in vitro ADME, cynomolgus monkey
Procedure: as §2
as §3, with “The peptides were extracted by precipitating the proteins with trichloroacetic acid (TCA) and subsequent centrifugation, as described previously in Elfgen et al.[24]. Peptides immediately extracted from the media and precipitated media without peptides served as controls.” left out
For the comparison of RD2 metabolite profiles across species (see 2.3), mobile phases were acetonitrile (A) and water (B) each supplemented with 0.1% TFA. […] The amount of the purified HSM-3 was calculated based on a calibration curve of 10 to 100 µM RD2 extracted from human liver microsomes.

cynomolguses = settings: cynomolgus monkey, in vivo, po; cited from earlier work
[4] = Stability in simulated intestinal fluid (SIF), RP-HPLC; type: in vitro ADME; settings: simulated intestinal fluid (SIF), 150 µM, 37 °C, 24 h, read-out: unmetabolized peptide remaining (remained stable)
Procedure: as §2
as §3, with “The peptides were extracted by precipitating the proteins with trichloroacetic acid (TCA) and subsequent centrifugation, as described previously in Elfgen et al.[24]. Peptides immediately extracted from the media and precipitated media without peptides served as controls.” left out
as §1

rat = system: rat; design: method as in complete study will be published elsewhere; settings: oral, up to high doses, ref complete study will be published elsewhere; cited from earlier work
CYP1A = molecular target: T1, CYP1A (Homo sapiens, UniProt P05177); assay: CYP isoform inhibition in human liver microsomes (Cyprotex)
T1 sequence (P05177 2-516): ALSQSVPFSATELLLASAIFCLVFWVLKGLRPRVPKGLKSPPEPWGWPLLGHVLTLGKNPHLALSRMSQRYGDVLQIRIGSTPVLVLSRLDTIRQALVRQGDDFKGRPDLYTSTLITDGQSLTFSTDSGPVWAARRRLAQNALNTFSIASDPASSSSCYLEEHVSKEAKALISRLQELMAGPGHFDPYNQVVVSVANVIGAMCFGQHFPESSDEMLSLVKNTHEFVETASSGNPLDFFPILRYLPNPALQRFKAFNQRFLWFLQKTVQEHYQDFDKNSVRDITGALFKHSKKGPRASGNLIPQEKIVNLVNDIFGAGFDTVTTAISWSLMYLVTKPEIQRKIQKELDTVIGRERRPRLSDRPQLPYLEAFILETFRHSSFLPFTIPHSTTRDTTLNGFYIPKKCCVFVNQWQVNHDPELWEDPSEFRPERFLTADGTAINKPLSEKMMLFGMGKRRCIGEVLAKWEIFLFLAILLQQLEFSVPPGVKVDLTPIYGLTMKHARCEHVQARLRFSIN
Procedure: The experiments were performed by Cyprotex. […] The reactions were terminated by methanol and the generated metabolites were monitored by LC-MS/MS or fluorescence. […] All assays were performed sevenfold. […] For all other substrates, the termination plates were centrifuged at 2,500 rpm and 4 °C for 30 min and aliquots of the supernatants were combined and transferred to fresh 96-well plates. Formic acid in deionized water (final concentration 0.1%) containing internal standard was added to the supernatants prior to cassette analysis by LC-MS/MS. A decrease in the formation of the metabolite compared to the vehicle control was used to calculate the IC50 values.

In the case of CC(C)C[C@@H](NC(=O)[C@H](NC(=O)[C@H]1CCCN1)[C@H](C)O)C(=O)N[C@H](Cc1c[nH]cn1)C(=O)N[C@@H](C(=O)N[C@H](Cc1c[nH]cn1)C(=O)N[C@H](CC(N)=O)C(=O)N[C@H](CCCNC(=N)N)C(=O)N[C@H](CCCNC(=N)N)C(=O)N[C@H](CCCNC(=N)N)C(=O)N[C@H](CCCNC(=N)N)C(=O)N[C@H](CCCNC(=N)N)C(N)=O)[C@H](C)O [RD2, ptlhthnrrrrr] (H-[dP][dT][dL][dH][dT][dH][dN][dR][dR][dR][dR][dR]-NH2), the remaining at 24 h, 150 µM [1] is reported as at least 97%, the peptide metabolized ([2]; 150 µM, 37 °C, within 24 h) is reported as 33 ± 3% and the “deamidation in human liver microsomes” value ([2]; UHPLC-ESI-QTOF-MS) is reported as “not deamidated”. For the same compound, the “metabolization of RD2 after 2 h” value ([3]; cynomolgus liver microsomes, 150 µM, 2 h) was “unmetabolized”, the metabolised at 24 h, 150 µM ([3]; monkey, pooled cynomolgus monkey liver microsomes, cynomolgus samples, 24 h, read-out: decrease of the intensity of the RD2 peak) was 9 ± 2% and the “toxic effects of orally administered RD2” value (cynomolguses) was “does not cause toxic effects up to high doses”. For the same compound, the remaining at 24 h, 150 µM [4] was at least 97%, the “toxic effects of orally administered RD2” value (rat) was “does not cause toxic effects up to high doses” and the “inhibition of CYP1A” value (CYP1A; concentration range 0 to 25 µM) was “did not inhibit”. The inhibition at 0.25 µM (CYP1A; human, human liver microsomes) was 6.18%, the inhibition at 1 µM (CYP1A; human, human liver microsomes) was 9.42% and the inhibition at 2.5 µM (CYP1A; human, human liver microsomes) was 1.34%. It also gave an inhibition at 10 µM (CYP1A; human, human liver microsomes) of -0.842% and an inhibition at 25 µM (CYP1A; human, human liver microsomes) of -0.198%.
